According to patent publication US6458590B1, “Methods and compositions for treatment of restenosis” (The United States of America, as represented by the …, priority 1997, dated 2002):

Assays:
[1] = test system: OPN; experiment: OPN expression in lipofected CASMCs (immunoprecipitation, Western blot); format: cell-based, human
Procedure: (§1) CASMCs (Clonetics) were transfected with a “LIPOFECTIN”-oligonucleotide complex according to the manufacturer's (GIBCO-BRL Life Technologies, Inc. Gaithersburg, Md.) specifications. Briefly, 5 μg of “LIPOFECTIN” was mixed with either 1 or 2 μg of antisense oligonucleotide in 200 μl of serum free medium (SFM) (also called basal medium) and incubated at room temperature for 15 min. Cells (1×10^5 cells/well, 12-well plate) during log phase of growth were washed with SFM and 1 ml of SFM containing Lipofectin with different amounts of antisense S-oligonucleotides was added to each well and mixed by gentle agitation. The cells were incubated further with the same medium at 37° C. for 12 h. Additional control cells which received either SFM, or SFM which contained “LIPOFECTIN” alone, were also included. […] The SFM medium containing “LIPOFECTIN”-oligonucleotide complex was removed, and the cells incubated for an additional 48 h in regular medium. At the end of this incubation period, the cells were ready for the determination of a dose response on OPN expression as measured by Western blotting.
The effect of antisense OPN sequences on OPN expression was determined by Western blot analysis as described above. […]

[2] = test system: human coronary artery smooth muscle cells (CASMCs); experiment: Proliferation of CASMCs after lipofection with OPN oligonucleotides ([3H]-thymidine); format: cell-based; conditions: oligonucleotide 1.5 μg/200 μl with LIPOFECTIN 5 μg/200 μl
Procedure: as §1
The effect of antisense ASHOPN-P1 on the proliferation of human coronary artery smooth muscle cells (CASMCs) was determined as described supra. […] The acid precipitable radioactivity was measured using a scintillation beta counter (Beckman).

[3] = test system: OPN; experiment: OPN production in PMA-stimulated CASMCs (immunoprecipitation, Western blotting); format: cell-based, human; conditions: 250 nM PMA, 37° C., 24 h
Procedure: An in vitro assay was used in order to determine whether an increase in OPN gene expression is detectable. Since phorbol myristate acetate (PMA) is known to induce OPN gene expression, CASMCs were stimulated with PMA, and OPN production was detected by immunoprecipitation of cell lysates followed by Western blotting.
CASMCs were incubated with Phorbol 12-myristate 13-acetate (PMA) (250 nM) at 37° C. for 24 h. The cells were immunoprecipitated using a kit according to manufacturer's (Boehringer Mannheim) instructions. Briefly, the cells were lysed with lysis buffer, centrifuged and the supernatant incubated with rabbit OPN-antibody for 1 h then with protein A-agarose at 4° C. overnight. Bound complexes were pelleted by centrifugation, washed and electrophoresed. Western blot analysis was done as described, supra.

[4] = test system: CASMCs; experiment: CASMC proliferation assay ([3H]thymidine); format: cell-based, human
Procedure: CASMCs were cultured as described above and the cells were starved in serum free media for 48 h. The proliferation assays were performed as described previously (Monfardini et al., (1995) J. Biol. Chem. 270:6628-6638). Briefly, the cells were incubated in the absence or presence of PDGF-AB (100 ng/ml) (Upstate Biotechnology, Lake Placid, N.Y.) and increasing concentrations of OPN (1.0-6.0 μg/ml) at 37° C. for 24 h. In separate experiments, cells were pre-treated with either mouse anti human αvβ3-antibody (5 μg/ml), preimmune IgG or GRGDS peptide (10 nM) followed by OPN (3.0 μg/ml). After 4 h, [3H]thymidine (1 μCi/ml) was added and the cells were maintained in culture for an additional 24 h under the same culture conditions as described previously. After removing the supernatants, the cells were washed with basal medium and lysed in 50% TCA. The acid precipitable cell-bound radioactivity was measured using a scintillation counter (Beckman).

[5] = test system: human CASMC; experiment: CASMC migration assay (Transwell); format: cell-based; conditions: OPN 0.68 or 1.36 μg/ml as chemoattractant, 24 h
Procedure: Migration of CASMC was performed using Transwell cell culture chambers with an […] pore size polycarbonate membrane (Costar) as described previously (Yue et al., (1994) Exptl. Cell Res. 214:459-464). Briefly, sub-confluent human CASMC were trypsinized, centrifuged and resuspended in basal medium (SmBM) supplemented with 0.2% BSA. This was followed by the addition of 0.25 ml of cell suspension (5×10^4 cells) to the upper compartnent of the chamber. The lower compartment contained 0.5 ml of basal medium supplemented with 0.2% BSA together with 0.68 μg/ml OPN, 1.36 μg/ml OPN, or buffer alone. After incubation at 37° C. for 24 h., the non-migrated cells on the upper surface of the filters were scraped and washed. The migrated cells were fixed in methanol, stained with Giemsa stain, counted under an inverted microscope and photomicrographed (120×) using a Zeiss photomicroscope (Axiovert 405 M). In separate experiments, cells in the upper compartment were also treated with monoclonal mouse anti-human αvβ3-antibody (Chemicon) (10 μg/ml) before being assayed for migration in order to ascertain whether this OPN-stimulated migration is mediated via αvβ3. Preimmune IgG treatment served as a non-specific control.

[6] = test system: CASMC; experiment: ECM-invasion assay (matrigel-coated invasion chamber); format: cell-based, human; conditions: OPN 0.5-2.0 μg/ml, 24 h
Procedure: The ECM-invasion assay was performed using a commercially available 24-well matrigel-coated invasion chamber (Collaborative Research) as described previously (Kundu et al., (1996) Proc. Natl. Acad. Sci. (USA) 93:2915-2919). Briefly, the confluent CASMC were trypsinized, centrifuged, and resuspended in basal medium supplemented with 0.1% BSA. The lower compartment of the invasion chamber was filled with fibroblast-conditioned medium (FCM) which served as a chemoattractant. The invasion assays were initiated by inoculating the upper chamber with cells (1×10^5/well) which were either untreated or treated with varying concentrations of OPN (0.5-2.0 μg/ml). After incubating at 37° C. for 24 h, the cells in the upper chamber were discarded, the matrigel was scraped clear and the cells which had invaded the matrigel and migrated to the lower surface of the filter, were fixed, stained, counted and photomicrographed (120×) as described above. The cells were also pre-treated with mouse anti-human αvβ3 antibody (Chemicon) (10 μg/ml) as described above to determine if the OPN-induced invasion was mediated via αvβ3. Preimmune IgG was used as a non-specific control.

Molecule: 5′-AATCACTGCAATTCTCATGG-3′ (all phosphorothioate, sugars by position and methylation of C not given here; listed as Homo sapiens) [ASHOPN-P1]
- expression of OPN by CASMCs ([1]; 1 or 2 μg S-oligonucleotide with LIPOFECTIN, versus LIPOFECTIN-treated or sense-treated cells): capable of inhibiting expression of OPN
- specificity of the antisense effect ([1]; compared with OPN sense-treated cells): specific
- inhibition of cell proliferation as compared to cells treated with LIPOFECTIN alone [2]: 82%

Molecule: 5′CCATGAGAATTGCAGTGATT-3′ (all phosphorothioate, sugars by position and methylation of C not given here; listed as Homo sapiens) [SHOPN, reference compound]
- inhibition of cell proliferation as compared to cells treated with LIPOFECTIN alone [2]: about 50%

Molecule: CCCCCCCCCCCCCC(=O)O[C@@H]1[C@@H](C)[C@@]2(O)[C@@H](C=C(CO)C[C@]3(O)C(=O)C(C)=C[C@@H]23)[C@@H]2C(C)(C)[C@]12OC(C)=O [PMA, Phorbol 12-myristate 13-acetate]
- level of OPN protein in stimulated cells versus unstimulated cells [3]: markedly higher

Molecule: Gly-Arg-Gly-Asp-Ser (GRGDS) [reference compound]
- effect on OPN-induced proliferation ([4]; pre-treatment: αvβ3-antibody 5 μg/ml or GRGDS 10 nM, then OPN 3.0 μg/ml): drastically inhibited

Molecule: osteopontin [OPN]
- CASMC proliferation ([4]; OPN 1.0-6.0 μg/ml): stimulated their proliferation in a dose-dependent manner
- CASMC proliferation, OPN in conjunction with PDGF-AB ([4]; with 100 ng/ml of PDGF-AB): dramatic dose-dependent effect
- CASMC proliferation, OPN alone ([4]; without PDGF-AB): modest proliferative response
- rate of migration of CASMCs [5]: enhanced with increasing concentrations
- invasiveness of CASMCs on MATRIGEL [6]: enhanced their invasiveness

Molecule: platelet-derived growth factor-AB [PDGF-AB, reference compound]
- CASMC proliferation, PDGF-AB alone ([4]; PDGF-AB 100 ng/ml, without OPN): virtually no effect
